Measurements: US5478723A, “Method and apparatus for determining the role of cytochrome P450 and related enzymes in the metabolism of drugs and other chemicals” (priority 1993, dated 1995)
“Also recorded” adds a separate entry of the source.

Assays:
CYP2A6 enzyme = details: cited from earlier work
CYP1A2 enzyme = details: known; cited from earlier work
CYP3A enzymes = details: cited from earlier work
cytochrome P450 = details: in vivo; cited from earlier work
liver = details: in vivo; cited from earlier work
labor at term [1] = test: Clinical trials of sparteine for inducing labor at term; format: in vivo, human; details: of all Caucasians; expected from CYP2D6 deficiency
Description: The drug was not recommended for clinical use because these side effects were unpredictable and occurred at doses of […], which were well tolerated by other patients.

labor at term [2] = details: cited from earlier work
CYP2D6 enzyme = details: background or known; cited from earlier work
CYP2CMp = details: in vivo; cited from earlier work
[3] = administered with ketoconazole or erythromycin; cited from earlier work
CYP2D6 = details: cited from earlier work

## O=c1ccc2ccccc2o1 [coumarin]
CYP2A6 enzyme
  enzyme which metabolizes the drug: metabolized by the CYP2A6 enzyme

## Cn1c(=O)c2c(ncn2C)n(C)c1=O [caffeine]
CYP1A2 enzyme
  enzyme which metabolizes the drug: metabolized by the CYP1A2 enzyme

## CC(=O)N1CCN(c2ccc(OCC3COC(Cn4ccnc4)(c4ccc(Cl)cc4Cl)O3)cc2)CC1 (stereo not drawn) [ketoconazole]
CYP3A enzymes
  inhibition of CYP3A enzymes: potent inhibitors of the CYP3A enzymes

## CCC1(c2ccccc2)C(=O)NC(=O)NC1=O [phenobarbital]
Cytochrome P450
  effect on cytochrome P450 activity: increase cytochrome P450 activity
  effect on metabolism of contraceptive steroids: increased rate of metabolism of contraceptive steroids

## CC(=O)Nc1ccc(O)cc1 [acetaminophen]
liver
  origin of liver toxicity: due to a toxic metabolite that is generated by cytochrome P450

## CN/C(=N/CCSCc1nc[nH]c1C)NC#N [cimetidine]
Cytochrome P450
  effect on cytochrome P450 activity: depresses P450 activity

## C1CCN2C[C@@H]3C[C@@H](CN4CCCC[C@@H]34)[C@H]2C1 [sparteine]
Labor at term [1]
  expected poor metabolizers: 5-10%
Labor at term [2]; clinical trials, United States, late 1950's
  potency for inducing labor at term: as potent as oxytocin
Labor at term [2]; of all patients tested
  patients with dramatically increased duration and intensity of action: about 7%
Labor at term [2]; patients administered during clinical trials
  patients with exaggerated response: 7%
Labor at term [2]; some patients
  side effects (exaggerated response): prolonged uterine contraction and abnormally rapid labor; also recorded: caused death of the fetus

## COc1ccc2c(c1)[C@]13CCCC[C@@H]1[C@H](C2)N(C)CC3 (stereo in doubt) [dextromethorphan]
CYP2D6 enzyme
  enzyme which metabolizes the drug: metabolized by the CYP2D6 enzyme

## CC[C@@]1(c2ccccc2)NC(=O)N(C)C1=O [S-mephenytoin]
CYP2CMp
  poor metabolizers among Caucasians: less than 5%
  poor metabolizers among Japanese subjects: about 20%

## CCC1(c2ccccc2)NC(=O)N(C)C1=O (stereo not drawn) [Mephenytoin]
CYP2CMp
  enzyme which metabolizes the drug: metabolized by CYP2CMp

## CO[C@H]1/C=C/O[C@@]2(C)Oc3c(C)c(O)c4c(O)c(c(/C=N/N5CCN(C)CC5)c(O)c4c3C2=O)NC(=O)/C(C)=C\C=C\[C@H](C)[C@H](O)[C@@H](C)[C@@H](O)[C@@H](C)[C@H](OC(C)=O)[C@@H]1C [rifampin]
Cytochrome P450
  effect on cytochrome P450 activity: increase cytochrome P450 activity
  effect on metabolism of contraceptive steroids: increased rate of metabolism of contraceptive steroids

## CC(C)(C)c1ccc(C(O)CCCN2CCC(C(O)(c3ccccc3)c3ccccc3)CC2)cc1 (stereo not drawn) [terfenadine]
[3]
  cardiac adverse reaction: Torsades de Points

## N=C(N)N1CCc2ccccc2C1 [debrisoquine]
CYP2D6; Caucasians
  poor metabolizers among Caucasians: 5-10%
CYP2D6; in vivo
  enzyme which metabolizes the drug: metabolized by CYP2D6
